US20260234147A1 (priority 2023, published 2026)
Like-named read-outs stand apart in the source and are kept apart here.

What was measured:
hMOR = hMOR (Homo sapiens, UniProt P35372); assay: Radioligand binding assay (Eurofins Cerep), [3H]DAMGO displacement; settings: read-out: MOR Ki ± SEM
α2A adrenergic receptor = target: T1, α2A adrenergic receptor (Homo sapiens, UniProt P08913); assay: Radioligand binding assay (Eurofins Cerep), [3H]RX 821002 displacement
T1 construct: Eurofins Cerep (contract screening)
T1 sequence (P08913 1-465): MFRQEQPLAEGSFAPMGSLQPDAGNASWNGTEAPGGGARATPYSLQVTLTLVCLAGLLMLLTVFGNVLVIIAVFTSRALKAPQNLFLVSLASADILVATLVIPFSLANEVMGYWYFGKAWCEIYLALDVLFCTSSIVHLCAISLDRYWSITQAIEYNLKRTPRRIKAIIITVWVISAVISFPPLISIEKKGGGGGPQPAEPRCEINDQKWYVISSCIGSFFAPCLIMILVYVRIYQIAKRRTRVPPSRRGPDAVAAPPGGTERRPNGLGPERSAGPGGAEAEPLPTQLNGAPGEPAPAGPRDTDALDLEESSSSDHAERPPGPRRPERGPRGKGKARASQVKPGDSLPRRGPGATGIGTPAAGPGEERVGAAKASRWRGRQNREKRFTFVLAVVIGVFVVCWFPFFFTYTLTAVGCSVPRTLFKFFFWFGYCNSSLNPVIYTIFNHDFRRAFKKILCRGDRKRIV

α2C adrenergic receptor = target: T2, α2C adrenergic receptor (Homo sapiens, UniProt P18825); assay: as above; settings: Table B1, mean ± SEM, 3 independent experiments
T2 construct: Eurofins Cerep (contract screening)
T2 sequence (P18825 1-462): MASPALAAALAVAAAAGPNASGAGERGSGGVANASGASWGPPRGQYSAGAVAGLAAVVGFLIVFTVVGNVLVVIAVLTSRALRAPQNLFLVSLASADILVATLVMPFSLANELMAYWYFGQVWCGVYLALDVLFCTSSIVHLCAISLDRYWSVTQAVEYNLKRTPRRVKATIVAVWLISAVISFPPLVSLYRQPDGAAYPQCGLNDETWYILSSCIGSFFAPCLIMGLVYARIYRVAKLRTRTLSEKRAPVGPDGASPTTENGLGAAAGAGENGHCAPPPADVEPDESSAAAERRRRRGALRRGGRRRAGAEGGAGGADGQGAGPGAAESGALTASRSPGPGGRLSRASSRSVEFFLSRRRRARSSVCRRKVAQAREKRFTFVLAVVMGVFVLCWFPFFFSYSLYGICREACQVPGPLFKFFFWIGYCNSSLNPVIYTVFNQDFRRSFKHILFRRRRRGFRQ

hKOR = hKOR (Homo sapiens, UniProt P41145); assay: Radioligand binding assay (Eurofins Cerep), [3H]U69,593 displacement; settings: Table B1′; read-out: KOR Ki ± SEM
hKOR, sequence (P41145 whole entry): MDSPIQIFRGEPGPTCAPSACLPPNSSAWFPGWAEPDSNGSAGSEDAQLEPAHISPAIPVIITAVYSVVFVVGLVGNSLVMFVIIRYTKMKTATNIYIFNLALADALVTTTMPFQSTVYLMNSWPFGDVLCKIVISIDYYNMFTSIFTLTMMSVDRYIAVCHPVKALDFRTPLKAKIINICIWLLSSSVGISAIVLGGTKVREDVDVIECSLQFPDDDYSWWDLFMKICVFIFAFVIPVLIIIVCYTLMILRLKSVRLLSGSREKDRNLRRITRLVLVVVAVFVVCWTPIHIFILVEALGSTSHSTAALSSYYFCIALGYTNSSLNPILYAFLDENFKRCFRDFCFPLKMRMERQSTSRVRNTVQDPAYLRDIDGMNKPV

hDOR = hDOR (Homo sapiens, UniProt P41143); assay: Radioligand binding assay (Eurofins Cerep), [3H]DADLE displacement; settings: Table B1′; read-out: DOR Ki ± SEM
hDOR, sequence (P41143 whole entry): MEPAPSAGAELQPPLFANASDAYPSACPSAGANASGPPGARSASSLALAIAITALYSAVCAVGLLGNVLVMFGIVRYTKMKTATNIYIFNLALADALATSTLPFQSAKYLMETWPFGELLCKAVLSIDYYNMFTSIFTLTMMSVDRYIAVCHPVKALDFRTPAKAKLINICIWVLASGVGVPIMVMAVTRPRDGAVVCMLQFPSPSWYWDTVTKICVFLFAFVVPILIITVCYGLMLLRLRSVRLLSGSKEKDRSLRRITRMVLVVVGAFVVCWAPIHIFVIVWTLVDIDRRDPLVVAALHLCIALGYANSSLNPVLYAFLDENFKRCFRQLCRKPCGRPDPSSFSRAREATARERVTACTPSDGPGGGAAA

[1] = Table B1, mean ± SEM, 3 independent experiments
[2] = alpha2A Ki ± SEM (nM), Table B1′

hMOR, sequence (P35372 whole entry): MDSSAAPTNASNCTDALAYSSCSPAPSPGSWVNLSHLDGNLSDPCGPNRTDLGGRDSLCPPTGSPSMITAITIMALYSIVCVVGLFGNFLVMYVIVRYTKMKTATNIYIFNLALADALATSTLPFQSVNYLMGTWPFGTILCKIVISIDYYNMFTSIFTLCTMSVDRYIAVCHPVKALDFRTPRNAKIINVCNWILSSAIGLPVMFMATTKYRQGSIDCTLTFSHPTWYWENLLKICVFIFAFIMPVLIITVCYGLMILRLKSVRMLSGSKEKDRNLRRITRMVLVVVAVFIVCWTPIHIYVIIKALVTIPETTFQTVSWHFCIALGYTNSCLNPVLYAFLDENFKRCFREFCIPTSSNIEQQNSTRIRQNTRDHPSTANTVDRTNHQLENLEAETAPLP

Compound | Ki (hMOR; [1]) [µM] | Ki (α2A adrenergic receptor; Alpha2A Ki ± SEM (nM), Table B1, mean ± SEM, 3 independent experiments) [nM] | Ki (α2C adrenergic receptor; read-out: Alpha2C Ki ± SEM) [nM] | Ki (α2A adrenergic receptor; Table B1, mean ± SEM, 3 independent experiments, read-out: Alpha2A Ki ± SEM) [nM] | Ki (α2C adrenergic receptor; Alpha2C Ki ± SEM (nM)) [nM] | Ki (hMOR; Table B1′) [µM] | Ki (hKOR) [µM] | Ki (hDOR) [µM] | Ki (α2A adrenergic receptor; [2]) [nM] | Ki (α2A adrenergic receptor; Table B1′, read-out: alpha2A Ki ± SEM) [nM]
COC(=O)CC1CCN2CCC(O)(c3ccccc3OC)CC2C1 (stereo not drawn) [SG-01-006, Methyl 2-(8-hydroxy-8-(2-methoxyphenyl)octahydro-1H-quinolizin-2-yl)acetate] | > 10 | 376 ± 72.2 | 139 ± 20.3 | – | – | – | – | – | – | –
COC(=O)CC1CCN2CCC(c3ccccc3OC)CC2C1 (stereo not drawn) [SG-01-008, Methyl 2-(8-(2-methoxyphenyl)octahydro-1H-quinolizin-2-yl)acetate] | > 10 | – | – | 27.9 ± 3.05 | 13.6 ± 0.828 | – | – | – | – | –
COC(=O)C=C1CCN2CCC(O)(c3ccccc3OC)CC2C1 (stereo not drawn) [drawing 167] | – | – | – | – | – | > 10 | > 10 | 2.94 ± 2.55 | 227 ± 37 | –
COC(=O)CC1CCN2CCC(c3ccccc3OC)CC2C1 (stereo not drawn) [drawing 171] | – | – | – | – | – | > 10 | > 10 | > 10 | – | 24 ± 3
COC(=O)CC1CCN2CCC(O)(c3ccccc3)CC2C1 (stereo not drawn) [drawing 173] | – | – | – | – | – | 8.61 ± 2.53 | 3.6 ± 1.08 | > 10 | 129 ± 49 | –
COC(=O)C=C1CCN2CCC(O)(c3ccccc3)CC2C1 (stereo not drawn) [drawing 176] | – | – | – | – | – | > 10 | 7.66 ± 2.67 | > 10 | 155 ± 65 | –
COC(=O)C=C1CCN2CCC(O)(c3cccc(OC)c3)CC2C1 (stereo not drawn) [drawing 179] | – | – | – | – | – | > 10 | > 10 | > 10 | 37 ± 3 | –
COC(=O)C=C1CCN2CCC(O)(c3cccc(OC)c3)CC2C1 (stereo not drawn) [drawing 180] | – | – | – | – | – | > 10 | > 10 | > 10 | 44 ± 5 | –
